Data from PubChem BioAssay (NCI).
Several values for one entry are separate records, joined by “and”; a condition that tells them apart may be missing. Equal entries are not always repeated.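 How tested: cells in 96-well plates exposed to compound for 48 hours at five concentrations. GI50 is the concentration that inhibits growth by half. TGI is the concentration that stops growth completely.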

What was measured:
Assay in all cases: DTP human tumour cell line panel, 48 h
U251 CNS = tested on: U251 CNS
UACC-62 melanoma = tested on: UACC-62 melanoma
SW-620 colon = tested on: SW-620 colon
COLO 205 colon = tested on: COLO 205 colon
NCI-H522 lung = tested on: NCI-H522 lung
SK-MEL-2 melanoma = tested on: SK-MEL-2 melanoma
HT29 colon = tested on: HT29 colon
SF-268 CNS = tested on: SF-268 CNS
SNB-19 CNS = tested on: SNB-19 CNS
KM12 colon = tested on: KM12 colon

SMILES | GI50 (U251 CNS) [µM] | TGI (U251 CNS) | GI50 (UACC-62 melanoma) [µM] | TGI (UACC-62 melanoma) | GI50 (SW-620 colon) [µM] | TGI (SW-620 colon) | GI50 (COLO 205 colon) [µM] | TGI (COLO 205 colon) | GI50 (NCI-H522 lung) [µM] | TGI (NCI-H522 lung) | GI50 (SK-MEL-2 melanoma) [µM] | TGI (SK-MEL-2 melanoma) | GI50 (HT29 colon) [µM] | TGI (HT29 colon) | GI50 (SF-268 CNS) [µM] | TGI (SF-268 CNS) | GI50 (SNB-19 CNS) [µM] | TGI (SNB-19 CNS) | GI50 (KM12 colon) [µM] | TGI (KM12 colon)
CC(=O)[CH-]C(=O)c1ccccc1.CC(=O)[CH-]C(=O)c1ccccc1.CCCCCCCCCCCCCCCCCC(=O)[O-].CCCCCCCCCCCCCCCCCC(=O)[O-].[Ti+4] | 20.3 | 41.4 µM | 18.7 | 41.5 µM | 33.3 | > 100 µM | 87.4 | > 100 µM | 23.1 | 62.4 µM | 21.7 | 52.4 µM | 20.8 | 44.9 µM | 21.6 | 47.6 µM | 17.5 | 33.6 µM | 33.6 | > 100 µM
Clc1ccccc1C(c1ccccc1)(c1ccccc1)n1ccnc1 | 2.48 | 11.8 µM and 49.8 µM | 1.44 | 6.68 µM and 27.9 µM | 3.28 | 13.3 µM and 40.1 µM | 1.76 | 3.28 µM and 29 µM | 2.66 | 8.89 µM and 18.9 µM | 2.66 | 7.22 µM and 29.3 µM | 2.24 | 7.1 µM and 28 µM | 3.92 | 18.8 µM and 35.7 µM | 3.14 | 17.7 µM and 32.3 µM | 2.23 | 6.25 µM and 36.8 µM
COc1cc2ncn(-c3cc(OCc4ccccc4Cl)c(C(N)=O)s3)c2cc1OC | 0.224 | 10.4 µM | 0.283 | > 25 µM | 0.102 | > 18.1 µM | 0.111 | > 25 µM | 0.13 | 1.13 µM | 1.5 | > 15.9 µM | 0.0921 | > 25 µM | 0.187 | > 13 µM | 1 | > 25 µM | 0.0806 | > 11.8 µM
Cn1cc(NC(=O)c2cc(NC(=O)CCCCCCCCCCC(=O)Nc3cc(C(=O)Nc4cc(C(=O)NCCC(=N)N)n(C)c4)n(C)c3)cn2C)cc1C(=O)NCCC(=N)N |  | > 100 µM |  | > 100 µM |  | 55 µM |  | > 100 µM |  | > 100 µM |  | > 100 µM |  | > 100 µM |  | > 100 µM |  | > 100 µM |  | > 100 µM
CNC(=O)c1ccccc1CC1(O)c2ccccc2Oc2ccccc21 | 19.6 | 59.6 µM | 10.4 | 52.6 µM | 14 | > 100 µM | 3.99 | 15.9 µM | 8.39 | 37.3 µM | 14.2 | 34.5 µM | 9.73 | 51.1 µM | 24.2 | 85.9 µM | 24.6 | > 100 µM | 8.15 | 44.6 µM
CSc1nc(SC)c2c(CN=[N+]=[N-])c(Br)n(Cc3ccccc3)c2n1 |  | > 100 µM |  | > 100 µM |  | > 100 µM |  | > 100 µM |  | > 100 µM |  | > 100 µM |  | > 100 µM |  | > 100 µM |  | > 100 µM |  | > 100 µM
O=C(CSc1nc2ccc([N+](=O)[O-])cc2[nH]1)Nc1ccc(F)c(Cl)c1 | 2.5 | 12.3 µM | 1.63 | 10.5 µM | 3.26 | 15.7 µM | 1.6 | 3.3 µM | 2.37 | 12.4 µM | 2.22 | 6.35 µM | 3.14 | 11.9 µM | 2.91 | 13.2 µM | 2.83 | 13.1 µM | 2.83 | 12.2 µM
CN(C)CC(=O)N1CCC(c2ccc(NC(=O)c3ncc(C#N)[nH]3)c(C3=CCCCC3)c2)CC1 | 4.66 | 16.9 µM | 3.3 | 11.7 µM | 4.98 | 18.7 µM | 4.43 | 14.1 µM | 7.88 | 23.1 µM | 6.83 | 20.3 µM | 2.8 | 10.2 µM | 10.4 | 24.2 µM | 11.8 | 25.2 µM | 0.354 | 13.8 µM
O=[N+]([O-])[C@@H]1C2C=CC(C2)[C@H]1Cl (stereo not given in full) |  | > 100 µM |  | > 100 µM |  | > 100 µM |  | > 100 µM |  | > 100 µM |  | > 100 µM |  | > 100 µM |  | > 100 µM |  | > 100 µM |  | > 100 µM
Cc1ccn2c3c(c(C(=O)O)c2c1)C(=O)c1ccccc1C3=O | 15.7 | > 100 µM | 2.44 | 9.13 µM | 15.1 | > 100 µM | 2.62 | 8.75 µM | > 45.7 | > 100 µM | > 100 | > 100 µM | 4.61 | > 100 µM | > 100 | > 100 µM | 4.24 | > 100 µM | 9.31 | > 100 µM
O=C(NNc1nc2c(F)cccc2n2cccc12)c1cnccn1 | 0.306 | 29.2 µM | 0.477 | 6.28 µM | 0.435 | 38.5 µM | 0.426 | > 33.4 µM | 0.817 | 16.8 µM | 1.4 | 37 µM | 0.604 | 50.3 µM | 0.484 | > 67.7 µM | 0.545 | > 100 µM | 0.458 | 27.1 µM
N#CC(=C1SCS1)[N+](=O)[O-] | 2.37 | 10.8 µM | 2.29 | 13.6 µM | 0.454 | 6.47 µM | 1.41 | 3.92 µM | 0.687 | 2.08 µM | 6.7 | 20.7 µM | 0.336 | 11.2 µM | 3.64 | 20.1 µM | 9.36 | 83.5 µM | 3.29 | 14.2 µM
COc1ccc(C(=S)N2CCN(c3cccc(Cl)c3)CC2)cc1 | > 100 | > 100 µM | 78.2 | > 100 µM | > 100 | > 100 µM | > 100 | > 100 µM | 15.3 | > 100 µM | > 100 | > 100 µM | > 100 | > 100 µM | > 100 | > 100 µM | > 100 | > 100 µM | > 100 | > 100 µM
COC1(C(=O)N2Cc3nc(Cl)nc(N[C@H](C)c4cc(N)cc(C(F)(F)F)c4)c3C2)CCOCC1 | 14.4 | 37.7 µM | 13.8 | 27.7 µM | 24.8 | > 86.3 µM | 18 | 33.8 µM | 9.23 | 55.2 µM | 16.7 | 33.6 µM | 18 | 36.6 µM | 13.7 | 49.1 µM | 14.5 | 72 µM | 13.6 | 54.3 µM
O=C(CCN1CCN(c2cnc3ccccc3n2)CC1)c1csc2ccccc12 | 47.8 | > 100 µM | 49.5 | > 100 µM | 20.9 | 45.4 µM | 24.9 | 59 µM | 18.4 | 42.8 µM | > 100 | > 100 µM | 38.4 | > 100 µM | > 100 | > 100 µM | > 100 | > 100 µM | 33.5 | > 100 µM
C=CC(=O)N[C@H]1C=C(C)c2c(-c3cnc4ccccc4c3)c3c(N)ncnc3n2C1 | 21.4 | 68.2 µM | 8.05 | 24.8 µM | 23.8 | > 95.5 µM | 15.4 | 43.8 µM | 0.699 | 20.4 µM | 13.4 | 35.2 µM | 11 | > 100 µM | 5.81 | 72.9 µM | 32.4 | > 100 µM | 19.5 | 45.6 µM
COc1ccc(-c2nn(-c3cccc(Cl)c3)cc2C2CC(c3ccccc3)=NN2C(C)=O)cc1 (stereo not given) | 3.15 | 14.9 µM | 15.3 | > 100 µM | > 100 | > 100 µM | > 100 | > 100 µM | 32.6 | > 100 µM | 4.97 | 22.6 µM | 5.49 | > 100 µM | 3.13 | 14.2 µM | 17 | > 100 µM | > 100 | > 100 µM
CN1CCN(Cc2ccc(C(=O)Nc3cncc(C#Cc4cnc(N)c5ccccc45)c3)cc2C(F)(F)F)CC1 | 1.78 | 3.33 µM | 5.22 | 17.5 µM | 1.78 | 3.89 µM | 3.69 | 13.3 µM | 1.95 | 4.26 µM | 2.29 | 5.2 µM | 2.05 | 5.02 µM | 4.42 | 17.2 µM | 2.49 | 5.69 µM | 0.788 | 2.48 µM
CCOC(=O)C1=C(C)Nc2ccccc2S1 |  | > 100 µM |  | > 100 µM |  | > 100 µM |  | > 100 µM |  | > 100 µM |  | > 100 µM |  | > 100 µM |  | > 100 µM |  | > 100 µM |  | > 100 µM
NC(N)=N/N=C(/c1ccccc1)c1ccc(F)cc1 | 0.337 | 5.21 µM | 0.421 | 15.5 µM | 0.376 | 19.3 µM | 0.267 | 0.841 µM | 0.267 | 1.45 µM | 0.429 | 11.3 µM | 0.3 | 2.63 µM | 0.543 | 14.4 µM | 0.476 | 19.5 µM | 0.32 | 7.5 µM
COc1cc(C(=O)NC2c3ccccc3-c3ccccc32)c(N)cc1OCc1ccccc1 | 14.4 | 34.7 µM | 20.1 | 67.5 µM | 66.4 | > 100 µM | 63.9 | > 100 µM | 34.7 | > 100 µM | 33.7 | 98.9 µM | 69.7 | > 100 µM | 16.8 | > 62.1 µM | 22.6 | 58 µM | > 100 | > 100 µM
O=C1NC(c2ccc(O)cc2)C2CCC1C2 (stereo not given) |  | > 100 µM |  | > 100 µM |  | > 100 µM |  | > 100 µM |  | > 100 µM |  | > 100 µM |  | > 100 µM |  | > 100 µM |  | > 100 µM |  | > 100 µM
N/C(CC(=O)Nc1cc(C(F)(F)F)ccc1Cl)=N\O |  | > 100 µM |  | > 100 µM |  | > 100 µM |  | > 100 µM |  | > 100 µM |  | > 100 µM |  | > 100 µM |  | > 100 µM |  | > 100 µM |  | > 100 µM
COc1cccc(/C=C/C(=O)c2cc3c(N)c(C(=O)Nc4ccccc4C)sc3nc2C)c1 | 0.892 | 1.81 µM | 0.905 | 2 µM | 1.01 | 2.32 µM | 2.02 | 7.61 µM | 1.07 | 3.38 µM | 1.7 | 8.18 µM | 1.11 | 2.58 µM | 1.78 | 7.66 µM | 1.07 | 2.68 µM | 1.27 | 3.62 µM
CC(C)(C)c1cc(O)c(O)c(C(C)(C)C)c1 | 4.35 | 16.1 µM | 2.54 | 7.78 µM | 1.8 | 3.23 µM | 3.61 | 12.2 µM | 1.77 | 3.29 µM | 3.74 | 11.4 µM | 2.9 | 6.71 µM | 4.77 | 16.1 µM | 7.3 | 20.3 µM | 5.57 | 16.9 µM
COc1ccc(-c2cc(-c3cc(Cl)ccc3Cl)nc3[nH]c(-c4cc(F)c(Cl)cc4Cl)cc(=O)c23)cc1 | 21.8 | 61.6 µM | 14.3 | 93.4 µM | 20 | > 100 µM | 43.6 | > 100 µM | 20.4 | > 100 µM | 64.8 | > 100 µM | 39.2 | > 100 µM | > 100 | > 100 µM | 64.1 | > 100 µM | 21.7 | 67.1 µM
